According to US4605655A, “Antipsychotic 1-fluorophenylbutyl-4-(2-pyrimidinyl)piperazine derivatives” (Bristol-Myers Company, priority 1984, dated 1986):
“Also recorded” adds a separate entry of the source. Read-outs that look alike come from different tables or passages of the source.

Tests used:
α1 receptor = assay: α1 binding vs. [^3 H]WB4101
Source text: (§1) As further indication of the psychotropic activity and specificity of the instant compounds, state of the art in vitro central nervous system receptor binding methodology can be employed. […] Inhibition of radiolabeled ligand binding to such specific high affinity sites is considered a measure of the compound's ability to affect corresponding central nervous system function or cause side effects in vivo. This principal is employed in the following assays which are given by way of example.

GABA binding sites = assay: GABA receptor binding; settings: in words
Source text: (§2) As further indication of the psychotropic activity and specificity of the instant compounds, state of the art in vitro central nervous system receptor binding methodology can be employed. Certain compounds (commonly referred to as ligands) have been identified which preferentially bind to specific high affinity sites in brain tissue dealing with psychotropic activity or potential for side effects. Inhibition of radiolabeled ligand binding to such specific high affinity sites is considered a measure of the compound's ability to affect corresponding central nervous system function or cause side effects in vivo. This principal is employed in the following assays which are given by way of example.

[1] = test system: apomorphine stereotypy (dopaminergic activity); assay: Inhibition of Apomorphine-Induced (APO) Stereotypy; assay type: in vivo, rats
Source text: 2. Inhibition of Apomorphine-Induced (APO) Stereotype--an assessment of blockade of dopaminergic activity in rats as measured by attentuation of the behavioral syndrome caused by the dopamine agonist, apomorphine. cf. Janssen, et al, Arzneimittel. Forsch., 17, 841 (1966).

opiate binding sites = assay: Opiate receptor binding; settings: in words
Source text: as §2

[2] = test system: α2-adrenergic binding sites; assay: α2-adrenergic receptor binding; settings: in words
Source text: as §2
Rosenblatt, et al., Brain Res., 160: 186
(1979); U'Prichard, et al., Science, 199:
197 (1978); U'Prichard, et al., Molec.

[3] = target: Muscarinic Cholinergic receptor; assay: Muscarinic cholinergic receptor binding
Source text: as §1
Cholinergic Yamamura, et al., Proc. Natn. Acad. Sci.

[4] = Conditioned Avoidance Response (CAR); assay type: in vivo, trained fasted rats
Source text: 1. Conditioned Avoidance Response (CAR)--measure of a drug's tranquilizing activity as determined by its attenuation of avoidance response to electrical shock in trained fasted rats. cf: Albert, Pharmacologist, 4, 152 (1962); Wu, et al, J. Med. Chem., 12, 876-881 (1969).

[5] = test system: serotonergic binding sites; assay: Serotonergic receptor binding; settings: in words
Source text: as §2
Peroutka and Snyder, Molec. Pharmacol.,

Catalepsy = assay type: in vivo, rats; settings: for ED50: rat, in vivo, po
[6] = test system: Dopamine receptor (striatal tissue); assay: Dopamine (DA) receptor binding vs. [^3 H]spiperone
Source text: as §1
Dopamine Burt, et al., Molec. Pharmacol., 12, 800

[7] = test system: norepinephrine lethality (α1-adrenergic blockade); assay: Inhibition of Norepinephrine (NE) Lethality; assay type: in vivo; settings: po; read-out: Inhibition of NE Lethality ED50 (alpha-block)
Source text: 5. Inhibition of Norepinephrine Lethality--drug inhibition of the lethality of noradrenergic drug norepinephrine indicates α1 -adrenergic blockade.

[8] = Catalepsy Reversal (neuroleptic-induced catalepsy); assay type: in vivo, rat; settings: for reversal of neuroleptic-induced catalepsy, potency relative to racemic material: compared with racemic BMY 14802; for Catalepsy Reversal ED50: p.o.
Source text: 4. Catalepsy Reversal--measure of a drug's ability to reverse neuroleptic-induced catalepsy in the rat.

[9] = in rats; compared with racemic BMY 14802; in words
[10] = Rattus norvegicus, po; read-out: Inhibition of APO-Stereotypy ED50
[11] = Rattus norvegicus, po; read-out: CAR ED50

Structure (SMILES): Cl.OC(CCCN1CCN(c2ncc(F)cn2)CC1)c1ccc(F)cc1 (racemic) [MJ 14802, 4-[4-[5-Fluoro-2-pyrimidinyl]-1-piperazinyl]-1-(4-fluorophenyl)butanol Hydrochloride]
- α1-adrenergic activity (α1 receptor; in words): lacks anticholinergic and α1 -adrenergic activities
- IC50 (α1 receptor; vs. [^3 H]WB4101): 0.52 µM
- activity at GABA binding sites (GABA binding sites): essentially inactive
- ED50 ([1]; Rattus norvegicus, po, read-out: Inhibition of APO-Stereotypy ED50): 33 mg/kg
- duration of action in the inhibition of apomorphine stereotypy ([1]; rat, in vivo): 4 h
- activity at opiate binding sites (opiate binding sites): essentially inactive
- activity at α2-adrenergic binding sites [2]: essentially inactive
- IC50 [3]: > 1 µM
- activity at cholinergic binding sites ([3]; in words, Hydrochloride): essentially inactive; also recorded: lacks anticholinergic
- ED50 ([4]; Rattus norvegicus, po, read-out: CAR ED50): 26.4 mg/kg
- duration of action in the inhibition of the CAR ([4]; rat, in vivo): > 7 h
- activity at serotonergic binding sites [5]: essentially inactive
- catalepsy production (Catalepsy; in words): fails to cause catalepsy
- ED50 (Catalepsy): > 100 mg/kg
- dopamine receptor binding ([6]; in words): very weak dopamine receptor binding
- IC50 ([6]; vs. [^3 H]spiperone, read-out: DA Binding (vs. [^3 H]spip.) IC50): 6.4 µM
- ED50 [7]: > 100 mg/kg
- ED50 ([8]; Rattus norvegicus, po, read-out: Catalepsy Reversal ED50): 16.9 mg/kg
- reversal of neuroleptic-induced catalepsy ([8]; in words): reverses neuroleptic-induced catalepsy

Structure (SMILES): OC(CCCN1CCN(c2ncc(F)cn2)CC1)c1ccc(F)cc1 (single isomer, unassigned) [(+)-- enantiomer of BMY 14802, (+)--α-(4-Fluorophenyl)-4-(5-fluoro-2-pyrimidinyl)-1-piperazinebutanol Hydrate]
- inhibition of apomorphine stereotypy, potency relative to racemic material [1, 9]: The converse was true
- reversal of neuroleptic-induced catalepsy, potency relative to racemic material ([8]; in words): The converse was true

Structure (SMILES): O.OC(CCCN1CCN(c2ncc(F)cn2)CC1)c1ccc(F)cc1 (single isomer, unassigned) [(-)-- enantiomer, (-)-α-(4-Fluorophenyl)-4-(5-fluoro-2-pyrimidinyl)-1-piperazinebutanol Hydrate]
- inhibition of apomorphine stereotypy, potency relative to racemic material [1, 9]: more potent than racemic material
- reversal of neuroleptic-induced catalepsy, potency relative to racemic material ([8]; in words): less potent

Structure (SMILES): CN1CCN(C2=Nc3cc(Cl)ccc3Nc3ccccc32)CC1 [Clozapine, reference compound]
- ED50 [1, 10]: 49.2 mg/kg
- ED50 [4, 11]: 24 mg/kg
- ED50 (Catalepsy): > 200 mg/kg
- ED50 [7]: 3.5 mg/kg
- Catalepsy Reversal ED50 [8]: I

Structure (SMILES): CSc1ccc2c(c1)N(CCC1CCCCN1C)c1ccccc1S2 (stereo not shown) [Thioridazine, reference compound]
- ED50 [1, 10]: 280 mg/kg
- ED50 [4, 11]: 126 mg/kg
- ED50 (Catalepsy): 45.2 mg/kg
- ED50 [7]: 2.2 mg/kg
- Catalepsy Reversal ED50 [8]: I

Structure (SMILES): OC(CCCN1CCN(c2ncccn2)CC1)c1ccc(F)cc1 (stereo not shown) [des-fluoro analog of MJ 14802]
- time after which CAR activity is lost ([4]; rat, in vivo): lost after three hours
